# Measured values from ChEMBL document CHEMBL3046027, “In vitro and in vivo antifungal activity of synthetic pure isothiocyanates against Sclerotinia sclerotiorum” (Pest Manag Sci, 2011).
# pEC50: −log10 of the molar value.
# How the values were obtained:
# [1] = system: Sclerotinia sclerotiorum; experiment: Antifungal activity against Sclerotinia sclerotiorum assessed as inhibition of mycelial growth in contact phase at 603 umol/l measured at 20 degC after 5 days; assay type: functional; conditions: 120 h, read-out: GI
# [2] = system: Sclerotinia sclerotiorum; experiment: Antifungal activity against Sclerotinia sclerotiorum assessed as inhibition of mycelial growth in volatile phase at 34 umol/l measured at 20 degC after 5 days; assay type: functional; conditions: 120 h, read-out: GI
# [3] = system: Sclerotinia sclerotiorum; experiment: Antifungal activity against Sclerotinia sclerotiorum assessed as inhibition of mycelial growth in contact phase at 670 umol/l measured at 20 degC after 5 days; assay type: functional; conditions: 120 h, read-out: GI
# [4] = system: Sclerotinia sclerotiorum; experiment: Antifungal activity against Sclerotinia sclerotiorum assessed as inhibition of germination in volatile phase at 67 umol/l measured at 20 degC after 5 days; assay type: functional; conditions: 120 h
# [5] = system: Sclerotinia sclerotiorum; experiment: Antifungal activity against Sclerotinia sclerotiorum assessed as inhibition of germination in volatile phase at 670 umol/l measured at 20 degC after 5 days; assay type: functional; conditions: 120 h
# [6] = system: Sclerotinia sclerotiorum; experiment: Antifungal activity against Sclerotinia sclerotiorum assessed as inhibition of mycelial growth in contact phase at 1340 umol/l measured at 20 degC after 5 days; assay type: functional; conditions: 120 h, read-out: GI
# [7] = system: Sclerotinia sclerotiorum; experiment: Fungistatic activity in Sclerotinia sclerotiorum assessed as inhibition of mycelial growth in contact phase at 2011 umol/l measured at 20 degC after 5 days relative to control; assay type: functional; conditions: 120 h, read-out: GI
# [8] = system: Sclerotinia sclerotiorum; experiment: Fungistatic activity in Sclerotinia sclerotiorum assessed as sclerotial viability measured at 20 degC after 5 days; assay type: functional, organism-based; conditions: 120 h
# [9] = system: Sclerotinia sclerotiorum; experiment: Antifungal activity against Sclerotinia sclerotiorum assessed as inhibition of germination in volatile phase at 335 umol/l measured at 20 degC after 5 days; assay type: functional; conditions: 120 h
# [10] = system: Sclerotinia sclerotiorum; experiment: Fungistatic activity in Sclerotinia sclerotiorum assessed as inhibition of mycelial growth in volatile phase measured at 20 degC after 5 days; assay type: functional, organism-based; conditions: 120 h
# [11] = system: Sclerotinia sclerotiorum; experiment: Fungistatic activity in Sclerotinia sclerotiorum assessed as viability in volatile phase at 335 umol/l measured at 20 degC after 5 days relative to control; assay type: functional; conditions: 120 h, read-out: GI
# [12] = system: Sclerotinia sclerotiorum; experiment: Antifungal activity against Sclerotinia sclerotiorum assessed as inhibition of mycelial growth in volatile phase at 67 umol/l measured at 20 degC after 5 days; assay type: functional; conditions: 120 h, read-out: GI
# [13] = system: Sclerotinia sclerotiorum; experiment: Fungistatic activity in Sclerotinia sclerotiorum assessed as inhibition of carpogenic germination in volatile phase at 335 umol/l measured at 20 degC after 5 days relative to control; assay type: functional; conditions: 120 h
# [14] = system: Sclerotinia sclerotiorum; experiment: Antifungal activity against Sclerotinia sclerotiorum assessed as inhibition of mycelial growth in volatile phase at 469 umol/l measured at 20 degC after 5 days; assay type: functional; conditions: 120 h, read-out: GI
# [15] = system: Sclerotinia sclerotiorum; experiment: Fungitoxic activity in Sclerotinia sclerotiorum assessed as inhibition of mycelial growth in volatile phase at 469 umol/l measured at 20 degC after 5 days relative to control; assay type: functional; conditions: 120 h, read-out: GI
# [16] = system: Sclerotinia sclerotiorum; experiment: Fungitoxic activity in Sclerotinia sclerotiorum assessed as viability in volatile phase at 670 umol/l measured at 20 degC after 5 days relative to control; assay type: functional; conditions: 120 h, read-out: GI
# [17] = system: Sclerotinia sclerotiorum; experiment: Antifungal activity against Sclerotinia sclerotiorum assessed as inhibition of germination in volatile phase at 34 umol/l measured at 20 degC after 5 days; assay type: functional; conditions: 120 h
# [18] = system: Sclerotinia sclerotiorum; experiment: Antifungal activity against Sclerotinia sclerotiorum assessed as inhibition of mycelial growth in volatile phase at 670 umol/l measured at 20 degC after 5 days; assay type: functional; conditions: 120 h, read-out: GI
# [19] = system: Sclerotinia sclerotiorum; experiment: In vivo antifungal Sclerotinia sclerotiorum in Pepper (Capsicum annuum L. cv. Sera Demre) assessed as inhibition of mycelial growth in volatile phase at 134 umol/L measured after 10 to 14 weeks; assay type: functional
# [20] = system: Sclerotinia sclerotiorum; experiment: Fungistatic activity in Sclerotinia sclerotiorum assessed as inhibition of carpogenic germination in volatile phase at 670 umol/l measured at 20 degC after 5 days relative to control; assay type: functional; conditions: 120 h
# [21] = system: Sclerotinia sclerotiorum; experiment: Fungistatic activity in Sclerotinia sclerotiorum assessed as inhibition of mycelial growth in contact phase measured at 20 degC after 5 days; assay type: functional, organism-based; conditions: 120 h
# [22] = system: Sclerotinia sclerotiorum; experiment: In vivo antifungal Sclerotinia sclerotiorum in Pepper (Capsicum annuum L. cv. Sera Demre) assessed as inhibition of mycelial growth in volatile phase at 67 umol/L measured after 10 to 14 weeks; assay type: functional
# [23] = system: Sclerotinia sclerotiorum; experiment: Antifungal activity against Sclerotinia sclerotiorum assessed as inhibition of mycelial growth in contact phase at 2011 umol/l measured at 20 degC after 5 days; assay type: functional; conditions: 120 h, read-out: GI
# [24] = system: Sclerotinia sclerotiorum; experiment: Fungistatic activity in Sclerotinia sclerotiorum assessed as inhibition of carpogenic germination in volatile phase at 34 umol/l measured at 20 degC after 5 days relative to control; assay type: functional; conditions: 120 h
# [25] = system: Sclerotinia sclerotiorum; experiment: Antifungal activity against Sclerotinia sclerotiorum assessed as inhibition of germination in volatile phase at 201 umol/l measured at 20 degC after 5 days; assay type: functional; conditions: 120 h
# [26] = system: Sclerotinia sclerotiorum; experiment: Antifungal activity against Sclerotinia sclerotiorum assessed as inhibition of mycelial growth in volatile phase at 335 umol/l measured at 20 degC after 5 days; assay type: functional; conditions: 120 h, read-out: GI
# [27] = system: Sclerotinia sclerotiorum; experiment: Fungistatic activity in Sclerotinia sclerotiorum assessed as inhibition of carpogenic germination in volatile phase at 67 umol/l measured at 20 degC after 5 days relative to control; assay type: functional; conditions: 120 h
# [28] = system: Sclerotinia sclerotiorum; experiment: Antifungal activity against Sclerotinia sclerotiorum assessed as inhibition of mycelial growth in contact phase at 469 umol/l measured at 20 degC after 5 days; assay type: functional; conditions: 120 h, read-out: GI
compound,measurement,setting,value
S=C=NCCc1ccccc1 [PHENETHYLISOTHIOCYANATE],inhibition of growth at 603 µM,[1],24.3%
same,inhibition of growth at 34 µM,[2],24.3%
same,inhibition of growth at 670 µM,[3],59.7%
same,inhibition at 67 µM,[4],26.7%
same,inhibition at 670 µM,[5],100%
same,inhibition of growth at 1340 µM,[6],92.5%
same,inhibition of growth at 2011 µM,[7],100%
same,pEC50,[8],3.94
same,inhibition at 335 µM,[9],100%
same,pEC50,[10],3.84
same,inhibition of growth at 335 µM,[11],100%
same,inhibition of growth at 67 µM,[12],42.7%
same,inhibition at 335 µM,[13],57.5%
same,inhibition of growth at 469 µM,[14],64%
same,inhibition of growth at 469 µM,[15],100%
same,inhibition of growth at 670 µM,[16],100%
same,inhibition at 34 µM,[17],6.7%
same,inhibition of growth at 670 µM,[18],100%
same,inhibition in vivo at 134 µM,[19],76.7%
same,inhibition at 670 µM,[20],82.5%
same,pEC50,[21],3.19
same,inhibition in vivo at 67 µM,[22],70%
same,inhibition of growth at 2011 µM,[23],100%
same,inhibition at 34 µM,[24],12.5%
same,inhibition at 201 µM,[25],66.7%
same,inhibition of growth at 335 µM,[26],51.3%
same,inhibition at 67 µM,[27],55%
same,inhibition of growth at 469 µM,[28],5%
